Converted amounts (≈) assume the structure as drawn. Read-outs that look alike come from different tables or passages of the source. Where only a bound is given, the exact number is not on record here.

The nature of data set [1]: Cytotoxicity, CCK-8 method. As to conditions: human. Format: cell-based. The protocol:
(§1) Cytotoxic activity was evaluated using the human lung adenocarcinoma cell line H1975 and human hepatocellular carcinoma cell line HepG-2, using the CCK-8 method as described in our previous study. Briefly, each of the test compounds was dissolved in DMSO and further diluted to give final concentrations of 80, 40, 20, 10, 5, 2.5, and 1.25 μM, respectively. H1975 cells or HepG-2 cells (5 × 10^3 […]) were seeded in 96-well plates and treated with compounds at the indicated concentration for 24 hours and then 10 μL CCK-8 reagent was added to each well. The plates were incubated at 37 °C for another 4 hours. Finally, the optical density was measured at a wavelength of 450 nm with a Bio-Rad microplate reader. Dose–response curves were generated, and the IC50 values were calculated from the linear portion of log dose–response curves.

The nature of data set [2]: Cytotoxicity, CCK-8 method. Format: cell-based. Particulars: human. On the procedure:
as §1
This is another data set of the same source.

The subject of the next data set is S. aureus MRSA. Put plainly: Antibacterial assay, micro broth dilution. The format is cell-based. Particulars: Staphylococcus aureus, read-out: Antibacterial Activity (MIC) MRSA. On the procedure:
(§2) The micro broth dilution method was used to evaluate the antibacterial activities of compounds 1–19 against the growth of eight common pathogens: Bacillus subtilis BS01, Micrococcus luteus, Escherichia coli ATCC 25922, Staphylococcus aureus ATCC 6538, S. aureus MRSA, Streptococcus agalactiae ATCC 13813, S. iniae, and Pseudomonas aeruginosa ATCC 9027 in 96-well polystyrene plates. Vancomycin and ciprofloxacin were used as positive controls. Briefly, wells containing 100 μL bacteria dilutions (OD600 = 0.01) in Luria–Bertani (LB) medium were supplemented with different concentrations of 1–19 (80, 40, 20, 10, 5, 2.5, 1.25, and 0.625 μg/mL), vancomycin, and ciprofloxacin (40, 20, 10, 5, 2.5, 1.25, 0.625, and 0.3125 μg/mL), respectively. The MICs were determined after 24 hours’ incubation at 37 °C with the tested compounds.

In the next data set the test system is Bacillus subtilis BS01. Put plainly: Antibacterial assay, micro broth dilution. Particulars: read-out: Antibacterial Activity (MIC) B. subtilis. The format is cell-based. The protocol: as §2
A further data set relates to Micrococcus luteus. Description: Antibacterial assay, micro broth dilution. Format: cell-based. As to conditions: read-out: Antibacterial Activity (MIC) M. luteus. The protocol:
as §2

A further data set deals with S. iniae. Description: Antibacterial assay, micro broth dilution. The format is cell-based. As to conditions: Streptococcus iniae, read-out: Antibacterial Activity (MIC) S. iniae. On the procedure: as §2
Data set [3] concerns Staphylococcus aureus ATCC 6538. Put plainly: Antibacterial assay, micro broth dilution. Format: cell-based. As to conditions: read-out: Antibacterial Activity (MIC) S. aureus. On the procedure:
as §2

In data set [4] the test system is Pseudomonas aeruginosa ATCC 9027. Description: Antibacterial assay, micro broth dilution. As to conditions: read-out: Antibacterial Activity (MIC) P. aeruginosa. The format is cell-based. The protocol: as §2
For data set [5], the system named is Escherichia coli ATCC 25922. Description: Antibacterial assay, micro broth dilution. The format is cell-based. Particulars: read-out: Antibacterial Activity (MIC) E. coli. On the procedure: as §2
Data set [6] concerns Streptococcus agalactiae ATCC 13813. Put plainly: Antibacterial assay, micro broth dilution. Format: cell-based. Particulars: read-out: Antibacterial Activity (MIC) S. agalactiae. On the procedure: as §2
A further data set has as its system brine shrimps. Description: Brine shrimp lethality bioassay. Particulars: Table 3. Format: in vivo. The text has this: The methods were the same as those used in our previous studies.
The mark [7] stands for this setting: micro broth dilution, LB medium, 24 hours at 37 °C.
The mark [8] stands for this setting: BS01, micro broth dilution, LB medium, 24 hours at 37 °C.
The mark [9] stands for this setting: ATCC6538, micro broth dilution, LB medium, 24 hours at 37 °C.
Setting [10] is: ATCC9027, micro broth dilution, LB medium, 24 hours at 37 °C.
Setting [11] is: ATCC25922, micro broth dilution, LB medium, 24 hours at 37 °C.
Where [12] appears, read: ATCC13813, micro broth dilution, LB medium, 24 hours at 37 °C.
Setting [13] is: HepG-2 cells (hepatocellular carcinoma cell line), HepG-2 cells, CCK-8, 24 hours treatment, read-out: Cytotoxicity (IC50) against HepG-2.
[14] abbreviates: H1975 cells (lung adenocarcinoma cell line), H1975 cells, CCK-8, 24 hours treatment, read-out: Cytotoxicity (IC50) against H1975.

Take `CS[C@@]12Cc3ccccc3N1C(=O)[C@]1(SC)CC3=COC=C[C@H](O)C3N1C2=O` (some centres unmarked) [Compound 17, 12,12a-anhydro-desacetyl-bis-dethio-7a, 14a-di-(methylmercapto)-apoaranotin]: the values for the IC50 at 24 h in [1] and in [2] were > 80 µM and 35.2 µM, respectively. Moreover, the MIC was > 80 µg/mL in the data set with S. aureus MRSA (setting [7]); 80 µg/mL (≈ 192 µM) in the data set on Bacillus subtilis BS01 (setting [8]); > 80 µg/mL in the data set on Micrococcus luteus (setting [7]); 30 µg/mL (≈ 72 µM) in the data set with S. iniae (setting [7]); > 80 µg/mL in [3] (setting [9]); > 80 µg/mL in [4] (setting [10]). Further, the MIC is > 80 µg/mL in data set [5] (setting [11]) and 70 µg/mL (≈ 168 µM) in data set [6] (setting [12]).
Regarding `O=C1N2C3OC=CC4SC2(CC3C4O)C(=O)NC12Cc1ccccc1O2` (centres unmarked) [Compound 1, Lecanicillium A], in the data set with brine shrimps, the “Toxicity (TC50) Brine Shrimp” value was >80 µg/mL. For the same compound, the MIC in the data set on S. aureus MRSA (setting [7]) is > 80 µg/mL; in the data set with Bacillus subtilis BS01 (setting [8]) it was 60 µg/mL (≈ 161 µM); in the data set on Micrococcus luteus (setting [7]), > 80 µg/mL; in the data set with S. iniae (setting [7]), > 80 µg/mL; in [3] (setting [9]) it was > 80 µg/mL; in data set [4] (setting [10]) it was > 80 µg/mL. Also, the MIC in data set [5] (setting [11]) and in [6] (setting [12]) was > 80 µg/mL throughout.
In the case of `CN[C@H](CC(C)C)C(=O)N[C@H]1C(=O)N[C@@H](CC(N)=O)C(=O)N[C@H]2C(=O)N[C@H]3C(=O)N[C@H](C(=O)N[C@H](C(=O)O)c4cc(O)cc(O)c4-c4cc3ccc4O)[C@H](O)c3ccc(c(Cl)c3)Oc3cc2cc(c3O[C@@H]2O[C@H](CO)[C@@H](O)[C@H](O)[C@H]2O[C@H]2C[C@](C)(N)[C@H](O)[C@H](C)O2)Oc2ccc(cc2Cl)[C@H]1O` [VMN, Vancomycin, reference compound], the minimum inhibitory concentration (MIC) in the data set with S. aureus MRSA (24 h) turned out to be 2.5 µg/mL (≈ 1.73 µM); in the data set on Micrococcus luteus (24 h), 0.6 µg/mL (≈ 0.414 µM).
In the case of `CS[C@@]1(Cc2ccccc2)NC(=O)[C@@](Cc2ccccc2)(SC)NC1=O` [Compound 7, emethacin B], the IC50 at 24 h in [1] (setting [13]) was > 80 µM; in data set [2] (setting [14]), 16.9 µM. The MIC (in the data set on S. aureus MRSA (setting [7]); with Bacillus subtilis BS01 (setting [8]); with Micrococcus luteus (setting [7]); with S. iniae (setting [7]); in [3] (setting [9]); in data set [4] (setting [10])) was > 80 µg/mL each time. Further, the MIC in data set [5] (setting [11]) and in data set [6] (setting [12]) was > 80 µg/mL throughout.
In the case of `CS[C@@]12CC3=COC=C[C@H](OC(C)=O)[C@H]3N1C(=O)[C@]1(SC)CC3=COC=C[C@H](OC(C)=O)[C@H]3N1C2=O` [Compound 8, bisdethiobis(methylsulfanyl)acetylaranotin], the IC50 at 24 h in data set [1] and in data set [2] was > 80 µM throughout. The MIC (in the data set on S. aureus MRSA (setting [7]); in the data set on Bacillus subtilis BS01 (setting [8]); in the data set on Micrococcus luteus (setting [7]); in the data set on S. iniae (setting [7]); in [3] (setting [9]); in data set [4] (setting [10])) was > 80 µg/mL in each case. For the same compound, the MIC in data set [5] (setting [11]) and in [6] (setting [12]) was > 80 µg/mL throughout.
Consider `CS[C@@]12CC3=CC=C[C@H](OC(C)=O)[C@H]3N1C(=O)[C@]1(SC)CC3=CC=C[C@H](OC(C)=O)[C@H]3N1C2=O` [Compound 15, haematocin], for which, in the data set on brine shrimps, the “Toxicity (TC50) Brine Shrimp” value is >80 µg/mL. Moreover, the half-maximal inhibitory concentration (IC50) at 24 h in data set [1] (HepG-2 cells, CCK-8, 24 hours treatment, read-out: Cytotoxicity (IC50) against HepG-2) was > 80 µM; in data set [2] (H1975 cells, CCK-8, 24 hours treatment, read-out: Cytotoxicity (IC50) against H1975) it was > 80 µM. Besides, the minimum inhibitory concentration (MIC) was > 80 µg/mL in the data set with S. aureus MRSA (24 h); 80 µg/mL (≈ 159 µM) with Bacillus subtilis BS01 (BS01, 24 h); > 80 µg/mL in the data set with Micrococcus luteus (24 h); > 80 µg/mL in the data set with S. iniae (24 h); > 80 µg/mL in data set [3] (ATCC6538, 24 h); > 80 µg/mL in [4] (ATCC9027, 24 h). Also, the minimal inhibitory concentration (MIC) in data set [5] (ATCC25922, 24 h) was > 80 µg/mL; in [6] (ATCC13813, 24 h) it was > 80 µg/mL.
As for `CS[C@@]1(Cc2ccccc2)NC(=O)[C@H](Cc2ccccc2)NC1=O` [Compound 6, Lecanicillium F], the IC50 at 24 h in data set [1] (setting [13]) and in data set [2] (setting [14]) was > 80 µM each time. In addition, the minimal inhibitory concentration (MIC) (in the data set on S. aureus MRSA (setting [7]); in the data set with Bacillus subtilis BS01 (setting [8]); with Micrococcus luteus (setting [7]); in the data set on S. iniae (setting [7]); in [3] (setting [9]); in data set [4] (setting [10])) was > 80 µg/mL throughout. The MIC in [5] (setting [11]) and in data set [6] (setting [12]) was > 80 µg/mL throughout.
